# Assay results taken from patent US6624140B1, “Synthetic peptides with antimicrobial and endotoxin neutralizing properties for management of the sepsis syndrome” (Academisch Ziekenhuis Bij de Universiteit van Amsterdam …, priority 1997, dated 2003).
# No end group written: not given here.
# Experiments:
# [1] = test system: TNF-α production; experiment: TNF-α in whole blood ex vivo, peptide added before LPS challenge; format: cell-based, human
# Protocol: FIG. 12. Effect of pre-challenge addition of synthetic peptides on TNF-a levels induced by E. coli 0111:B4 LPS in whole blood ex vivo. The synthetic peptides BP2, BP2.1 or BP2.2 were added to whole blood containing heparin at 2 I.U/ml at the concentrations indicated and incubated for 10 min at 37° C. TNF-α concentrations were measured after incubation for 4 h at 37° C. subsequent to addition of E. coli 0111:B4 LPS at 1 ng/ml. The values represent the means of triplicate experiments. Controls only contained added LPS.
# To determine whether addition of synthetic peptide to whole blood ex vivo prior to endotoxin challenge was effective in endotoxin neutralization assayed in terms of cytokine production, a synthetic peptide of the invention BP2, and the analogues BP2.1 or BP2.2 were added at concentrations of 2.5 to 20 μg/ml to whole blood and incubated for 10 min at 37° C. prior to the addition of 1 ng/ml E. coli 0111:B4 LPS. TNF-α concentrations were determined as previously described. […] The structurally related LPS-binding synthetic peptide analogues BP2.1 and BP2.2 were ineffective in endotoxin neutralization under these conditions.
# [2] = ELISA binding to immobilized endotoxins of increasing complexity, effect of plasma; parameters: species or system Escherichia coli
# Protocol: FIG. 4. Effect of endotoxin complexity and plasma concentration on the binding of synthetic peptide BP2 of the invention to immobilized LPS. Coated ELISA microtiter plates containing E.coli D31m4 Lipid A, Re, J5 or 0111:B4 LPS were incubated with synthetic peptide at a concentration of 40 ng/ml in the presence of plasma at dilutions to 10% (v/v). Binding activity was determined by the ELISA microplate lipid A binding assay as previously described.
# Double-immunodiffusion of the peptides of the invention against ‘rough’ R-type E. coli D31m4 Re-LPS (List Biological Laboratories Inc., Calif.) or the structurally more complex ‘smooth’ S-type E. coli 0111:B4 LPS (Sigma Chemical Co., Rockford, Ill.) was performed in 0.8% (w/v) agarose containing 50 mM Tris and 0.1% (w/v) Triton X100, pH 7.5. for 16 h at 20° C. PmB and BPI(85-102) were included as control compounds for comparative purposes. The microprecipitates formed were visualized by Coommassie brilliant blue staining. […] Since the amount of precipitate formed is a function of valency, the peptides of the invention appear to be capable of a high degree of intermolecular binding of LPS molecules via the Lipid A moieties. […] The degree of precipitation of endotoxin by the synthetic peptides according to the invention was determined by measurement of the optical density of insoluble complexes formed at 340 nm (FIG. 2). […]
# [3] = Tolerability of i.p. peptide in mice; format: in vivo; conditions: 2.5 and 5 mg/Kg i.p.; 2 week observation; Swiss mice
# [4] = Capture of TAG-labeled endotoxin by immobilized peptide (ECL); format: binding, Escherichia coli; conditions: biotinylated BP2 on streptavidin beads; TAG-labeled J5 LPS
# Protocol: FIGS. 5A and 5B. Capture of labeled endotoxin by immobilized synthetic peptide. 2 ng of biotinylated synthetic peptide BP2, immobilized on 20 μg of streptavidin-coated supramagnetic polystyrene beads (Dynabeads M-280, Dynal A. S., Oslo, Norway) was incubated with the indicated amounts of chemiluminescent TAG-labeled E. coli J5 LPS for 20 min at 23° C. The amount of captured endotoxin, after a washing cycle with Phosphate buffer containing 0.1% (v/v) Triton X100, was determined by electochemiluminescence detection (ECL) using an Origen Analyser (Igen Inc., Rockville, Mass.). […] The values are the means of triplicate determinations corrected for non-specific binding.
# Capture of the TAG labeled J5 LPS by immobilized synthetic peptide was quantitated by electrochemiluminescence detection subsequent to washing steps with phosphate buffer containing 0.1% (w/v) Triton X100 to remove excess unbound LPS. […] This confirms the high capacity of immobilized peptides of the invention for endotoxin in solution. […] LPS with high affinity and are universal lipid A binding ligands. The above mentioned microplate experiments were employed to determine the endotoxin binding activity and specificity of the synthetic peptides and formed the basis for the development of a novel highly sensitive endotoxin assay. […] The same degree of concentration-dependent inhibition was observed when various amounts of added endotoxin were assayed directly in plasma dilutions.
# [5] = Double-immunodiffusion against 0111:B4 LPS; format: binding, Escherichia coli; conditions: 0.8% agarose, 16 h at 20° C.; data not shown
# Protocol: (§1) Double-immunodiffusion of the peptides of the invention against ‘rough’ R-type E. coli D31m4 Re-LPS (List Biological Laboratories Inc., Calif.) or the structurally more complex ‘smooth’ S-type E. coli 0111:B4 LPS (Sigma Chemical Co., Rockford, Ill.) was performed in 0.8% (w/v) agarose containing 50 mM Tris and 0.1% (w/v) Triton X100, pH 7.5. for 16 h at 20° C. PmB and BPI(85-102) were included as control compounds for comparative purposes. The microprecipitates formed were visualized by Coommassie brilliant blue staining. […] Since the amount of precipitate formed is a function of valency, the peptides of the invention appear to be capable of a high degree of intermolecular binding of LPS molecules via the Lipid A moieties. […] The degree of precipitation of endotoxin by the synthetic peptides according to the invention was determined by measurement of the optical density of insoluble complexes formed at 340 nm (FIG. 2). […] Binding characteristics of biotinylated derivatives of the synthetic peptides BP1, BP2, BP2.1 and the control peptide BPI(85-102) were determined on ELISA microtiter plates coated with E. coli D31m4 Lipid A. Specific binding of the biotinylated peptides to the immobilized Lipid A was determined by development with Streptavidin-HRP and 3, 5, 3′, 5′ tetra-methylbenzidine (TMB) substrate and expressed as the corrected optical density at 450 nm. […]
# [6] = Double-immunodiffusion against Re-LPS; format: binding, Escherichia coli; conditions: 0.8% agarose, 16 h at 20° C.; data not shown
# Protocol: as §1
Substance,endotoxin neutralization (TNF-α production) ([1]; 2.5 to 20 μg/ml added 10 min before 1 ng/ml LPS),inhibition of cytokine (TNF-α) production ([1]; peptide 20 μg/ml added 10 min before 1 ng/ml LPS),degree of binding versus complexity of immobilized LPS ([2]; peptide 40 ng/ml),"effect of plasma on binding to endotoxins ([2]; up to 5% (v/v) heat-treated, clarified plasma)",tolerability [3],molar excess of LPS up to which binding response is linear [4],molar excess of endotoxin at saturation [4],stochiometric ratio of peptide to LPS up to which capture is linear [4],precipitation of 0111 LPS [5],precipitation of Re LPS [6]
"GKWKLFKKAFKKFLKILAC-OH [BP2, Gly-Lys-Trp-Lys-Leu-Phe-Lys-Lys-Ala-Phe-Lys-Lys-Phe-Leu-Lys-Ile-Leu-Ala-Cys]",dose-dependent inhibition,57%,decreases with increasing complexity of immobilized LPS,no significant effect,well tolerated with no adverse effects,2 fold,8 fold,1 to 2,–,–
"Ile-Lys-Ile-Ser-Gly-Lys-Trp-Lys-Ala-Gin-Lys-Arg-Phe-Leu-Lys-Met-Ser-Gly-(Cys) (IKISGKWKAQKRFLKMSGC; listed as Homo sapiens) [BPI(85-102), reference compound]",–,–,–,–,–,–,–,–,considerably less,considerably less
